In PMC4077824, “Conserved Prosegment Residues Stabilize a Late-Stage Folding Transition State of Pepsin Independently of Ground States” (PLoS ONE, 2014):
Several values for one entry are separate records, joined by “and”; a condition that tells them apart may be missing. Equal values may be shown once. Where no end group is shown, it is not given here.

What was measured:
[1] = system: pepsin (PS-Rp, PS-TS, PS-Np complexes); assay: Φ-value analysis from PS-catalyzed folding and binding constants; set-up: species or system porcine; details: for Φ: ratio ΔΔG^‡/ΔΔGPS(Np-Rp); for Φ / ΔΔGPS(Np-Rp) (change in equilibrium stability of PS-Np relative to PS-Rp): ± SD by propagation of errors; for ΔΔGPS(Np-Rp) (change in equilibrium stability of PS-Np relative to PS-Rp): ΔΔGPS-Np minus ΔΔGPS-Rp; for effect on PS-TS stability (in words): ΔΔGPS-TS = ΔΔG^‡ + ΔΔGPS-Rp
Procedure: Calculation of Φ-values from PS-catalyzed folding and binding constants
The change in stability of the folding transition state upon mutation was calculated using [drawing 3] (3) where k f, wt and k f, mut are the PS-catalyzed folding rate constants of the wild-type and mutant PS peptides. The change in equilibrium stability of PS-Np relative to PS-Rp upon mutation of the PS (ΔΔGPS(Np-Rp)) was determined as the difference between the changes in binding energies, using [drawing 4] (4) and [drawing 5] (5)
Here, ΔΔGbind refers to either ΔΔGPS-Rp, determined from K d values, or ΔΔGPS-Np, determined from K i values. The Φ-value for each mutant corresponds to eq 3 divided by eq 5. Additional details are included in the supporting information section (Text S1).
As outlined below, ∆Gbind values are used to calculate ∆∆GPS(Np-Rp), which is the change in the equilibrium free energy difference between PS-Np and PS-Rp upon mutation of the PS (for a diagram of the folding reaction, see Fig S1)
ΔΔGbind can refer to either ∆∆G^PS-Np(wt-mut) or ∆∆G^PS-Rp(wt-mut). Also, we can write ∆Gbind in terms of its components
where ∆GPS, ∆Gpepsin and ∆Gsolvent refer to the change in free energy of the PS, pepsin and the solvent upon PS binding to pepsin, respectively. Combining equations S1 and S2 gives
The contribution of each component to ∆∆Gbind will depend on the particular mutation (e.g., nature of substitution, location within folded structure, solvent accessibility). This is the general case for protein engineering analysis, in which the effects of mutations on changes in equilibrium and activation energies are the result of many individual interaction energy terms, including solvent terms, as previously explained in detail [Fersht AR, Matouschek A, Serrano L (1992) The folding of an enzyme I. Theory of protein engineering analysis of stability and pathway of protein folding. J Mol Biol 224: 771‒782]. Most importantly, there is no requirement to separate ΔΔGbind into its components in order to proceed with analysis as we are interested in the overall change in equilibrium stability of the PS-pepsin complex (∆∆GPS(Np-Rp))
This bimolecular approach to Φ-value analysis of protein folding is qualitatively identical to Φ-value analysis as it was originally applied to the study of enzyme catalysis. As outlined previously [Fersht AR], changes in the free energy of enzyme (E) binding to substrate (S) or product (P) are used to determine the change in free energy difference between E-P and E-S upon mutation, ∆∆G^EP-ES(wt-mut), where
As these are at the scale of global energy terms, equations S4 and S5 are equivalent and PS-catalyzed folding can be treated similarly as enzyme catalysis, in which the PS is the foldase and the denatured and natively folded protein are the substrate and product, respectively. However, protein folding reactions are more complicated to interpret at the level of individual interaction energy terms, which are more numerous [Fersht AR].
Changes in the binding energies between PS-Rp and PS-Np upon PS mutation can then be used to determine Φ-values with the following considerations:
1. Free PS is unstructured (see Fig S6), so Ala mutations are expected to have a negligible effect on the stability and conformation of free PS.
2. Changes in binding and folding upon mutation can be localized to the loss of interactions in the immediate vicinity of the truncation mutation (i.e., larger residue mutated to Ala), and not due to gross conformational changes of the PS or changes in the binding/folding mechanism (consider as strong evidence that all of the mutant PS’s readily catalyze folding to the native, active form).
3. Changes in PS-Rp and PS-Np binding energies upon mutation (∆∆G^PS-Np(wt-mut) and ∆∆G^PS-Rp(wt-mut)) are measured directly, while the change in the PS-TS binding energy (∆∆G^PS-TS(wt-mut)) is the sum of ∆∆G^PS-Rp(wt-mut) and ∆∆G^‡(wt-mut).
4. Φ-values are calculated using […]

[2] = CD spectroscopy of prosegment; format: physicochemical; details: PSwt 0.1 mg/ml, pure water or 20 mM acetic acid/NaOH pH 5.3 with and without 100 mM NaCl
Procedure: CD data were collected using a Jasco J-810 spectropolarimeter (Jasco corp., Tokyo, Japan), over a wavelength range of 250 nm to 190 nm with a 1 nm resolution, 100 nm/min scan rate, 0.25 s response time and four-fold accumulation of scans. PSwt was diluted to 0.1 mg/ml in either pure water or 20 mM acetic acid/NaOH buffer at pH 5.3, with and without 100 mM NaCl, and loaded into a cell with a 0.1 cm path length. Background spectra were subtracted and the sample spectra converted to units of mean residue ellipticity, MRE, using MRE = MRW ×θ λ/(10×d×c), where MRW is the mean residue weight (molecular weight/number of residues), θ λ is the measured ellipticity at a particular wavelength (degrees), d is the pathlength (0.1 cm) and c is the protein concentration (g/cm^3).
Supplementary file pone.0101339.s006.tif: Figure S6 CD spectra of prosegment. Far-UV CD spectra of PSwt, in ddH2O and in 20 mM acetic acid/NaOH, at pH 5.3, with and without 100 mM NaCl added. […] Anal Biochem 287: 243–251]. (TIF) Click here for additional data file.

refolded pepsin (Rp) [3] = biological target: T1, refolded pepsin (Rp) (Sus scrofa, UniProt P00791); assay: PS-catalyzed folding of Rp to Np (recovery of Np activity); format: biochemical, porcine; details: PS with Rp, without 100 mM NaCl, timescale of 0–2 hours; data not shown, and [7]
T1 construct: Only the R13 and K36 side-chains of the PS form hydrogen bonds with the mature pepsin domain; purchased Sigma (St. Louis, MO, USA)

refolded pepsin (Rp) [4] = biological target: T1, refolded pepsin (Rp); details: ref [7]; cited from earlier work
Text: Figure 1 Zymogen-derived proteins deviate from common trends in protein folding. (A) Comparison of the non- and PS-catalyzed folding of αLP [8], SGPB [5] and pepsin [7]. (B) Relation between topology and folding rate for a number of two- and three-state folding proteins (circles, data taken from, [21], [22]). The folding rate of αLP (squares), SGPB (triangles) and pepsin (stars) is accelerated to the value (hollow points) expected based on the topology, only when the PS is included. (C) Reaction scheme of pepsin PS-catalyzed folding. […] It seems likely that the PS has achieved this higher affinity for the TS via a concerted optimization of side-chain packing, hydrogen bonding and electrostatics, as evidenced by polar, hydrophobic and charged groups selectively stabilizing the TS ( Fig 3A ). Furthermore, this concerted optimization likely involves both non-native and strengthened native contacts, given the range of interactions involved. In the native fold [ ...

[5] = system: pepsin (PS-Rp, PS-TS, PS-Np complexes); details: ref [7]; cited from earlier work
Text: It seems likely that the PS has achieved this higher affinity for the TS via a concerted optimization of side-chain packing, hydrogen bonding and electrostatics, as evidenced by polar, hydrophobic and charged groups selectively stabilizing the TS ( Fig 3A ). Furthermore, this concerted optimization likely involves both non-native and strengthened native contacts, given the range of interactions involved. In the native fold [ ...

T1 sequence (P00791 60-385): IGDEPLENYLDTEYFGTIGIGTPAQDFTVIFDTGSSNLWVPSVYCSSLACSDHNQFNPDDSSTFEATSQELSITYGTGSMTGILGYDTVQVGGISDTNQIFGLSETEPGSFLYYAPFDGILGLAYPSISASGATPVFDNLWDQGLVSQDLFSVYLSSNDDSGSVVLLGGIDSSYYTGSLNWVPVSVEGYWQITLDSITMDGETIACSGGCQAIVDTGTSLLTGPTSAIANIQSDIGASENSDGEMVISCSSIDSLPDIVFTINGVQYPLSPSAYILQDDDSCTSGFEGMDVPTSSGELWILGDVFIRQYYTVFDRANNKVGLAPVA

Sequence	Φ [1]	ΔΔGPS(Np-Rp) (change in equilibrium stability of PS-Np relative to PS-Rp) [1] [kcal/mol]	effect on PS-TS stability (in words) [1]	secondary structure of free PS by CD [2]	secondary structure of free PS by CD ([2]; listed as PS)	generation of protease activity without added NaCl (refolded pepsin (Rp) [3])	affinity for Rp (refolded pepsin (Rp) [4])	affinity for folding TS [5]
LVKAPLVRKKSLRQNLIKNGKLKDFLKTHKHNPASKYFPEAAAL [V4A]	−1.0±0.3	-0.93 ± 0.18	destabilizing to the TS					
LVKVPLVRKKSLRQNLAKNGKLKDFLKTHKHNPASKYFPEAAAL [I17A]	0 and 0.0±0.1	1.26 ± 0.28	negligible effect on PS-Rp and PS-TS stability					
LVKVPLVRKKSLRQNLIKNGKLKDFLKTHKHNPASKYFPEAAAL [WT]				A negative band at 198 nm is characteristic of random coil structure	unstructured on its own	no generation of protease activity was observed	micromolar	picomolar affinity
